Patent publication US6632418B2, “Radioligands and their use for identifying potassium channel modulators” (Abbott Laboratories, priority 2001, dated 2003)
Read-outs that look alike come from different tables or passages of the source. Values belong to the compound of their own block, whether it stands above or below them.

Assays:
[1] = molecular target: T1, ATP-sensitive potassium channels (Cavia porcellus, UniProt A0A286XYR9); assay: Radioligand (Example 1) binding assay, guinea-pig cardiac ventricle membranes; conditions: for effect on specific binding of Example 1 (in words): guinea-pig cardiac membranes
Procedure: Membrane Preparation: Guinea-pig cardiac ventricles and bladder membranes were prepared by standard procedures, Gopalakrishnan, M., Johnson, D. E., Janis, R. A. & Triggle, D. J. (1991) Journal of Pharmacology and Experimental Therapeutics, 257, 1162-71; Russ, U., Metzger, F., Kickenweiz, E., Hambrock, A., Krippeit-Drews, P. & Quast, U. (1997) Br. J. Pharmacol., 122, 1119-1126. Briefly, ventricles and bladders were quickly removed from male guinea-pigs (Charles River) and placed in ice-cold binding buffer. Tissues were cleansed of adherent connective tissue, chopped into small pieces and disrupted using Tekmar polytron in about 15-vol./g tissue weight. Homogenates were centrifuged at 45,000×g and the membrane pellets were resuspended in the assay buffer. Membrane preparations from other tissues, cells, both clonal and transfected with KATP subunits, may also be used. Clonal cell lines or transfected cell lines can be cultured by standard tissue culture techniques. When cells were confluent, membrane preparations were made by removal of media followed by scraping the monolayer in ice-cold Tris HCl buffer (pH 7.2). The suspension was then centrifuged at 45,000×g for 20 minutes and the pellet was resuspended in the assay buffer for use in radioligand assays.
Binding Assay: A radioligand of formula (I) such as 9-(4-fluoro-3-[I^125]iodophenyl)-2,3,5,9-tetrahydro-4H-pyrano[3,4-b]thieno[2,3-e]pyridin-8(7H)-one 1,1-dioxide (Example 1) (specific activity, 2000 Ci/mmol) was stored in ethanol. Prior to use, the desired amount of Example 1 was dried under a gentle stream of nitrogen gas and reconstituted in the assay buffer (usually prepared as a 10×stock). Guinea-pig ventricle membranes were incubated in a total 0.25 mL volume of HEPES buffer (composition, NaCl, 139 mM; KCl, 5 mM, MgCl2, 25 mM; CaCl2, 1.25 mM; pH 7.4 at 25° C.) containing an ATP regenerating system (creatine phosphate (40 mM), creatine phosphokinase (100 enzyme units) and varying concentrations of Na2ATP (0.01-3 mM) with Example 1 and varying concentrations of test compounds at 37° C. for 90 minutes. These conditions have been previously employed by Gopalakrishnan et al., 1991 (see above), hereby incorporated by reference, wherein the levels of ATP were consistently maintained since free ADP is converted back to ATP by creatine phosphate and creatine is regenerated to creatine phosphate by the enzyme creatine phosphokinase.
Saturation binding of Example 1 was performed with varying concentrations of Example 1. For inhibition assays, samples were incubated in a final volume of 0.25 mL of buffer containing 1-2 nM of Example 1 with varying concentrations of the test compounds. Incubations were terminated by rapid vacuum filtration through GF/B filters followed by rinsing twice with ice-cold 50 mM Tris HCl (pH 7.4). Radioactivity bound to the filters was assessed by gamma counting. Specific radioligand binding is defined by the inclusion of 10 μM of unlabeled Example 1 and was obtained by subtracting the nonspecific binding from the total binding to membranes and filters.
Membrane protein concentration was determined by the method of Lowry et al Gopalakrishnan, M., Triggle, D. J., Rutledge, A., Kwon, Y. W., Bauer, J. A. & Fung, H. L. (1991) Am. J. Physiol., 261, H1979-H1987; Janis, R. A., Maurer, S. C., Sarmiento, J. G., Bolger, G. T. & Triggle, D. J. (1982). Eur. J. Pharmacol., 82, 191-4.
The equilibrium dissociation constant (KD) and maximal density of binding sites (Bmax) of Example 1 was determined by non-linear regression of the saturation binding isotherm. The Ki values were calculated from the concentration inhibition curve by the method of Cheng and Prusoff (1973) Biochem.Pharmacol.,22, 3099-3108. Data is presented as means±S.E.M.

[2] = molecular target: ATP-sensitive potassium channel; assay: Comparison of the profile of the novel radioligand with [^3H]P1075 in membrane preparations; format: binding; conditions: radioligand comparison table; read-out: Affinity
[3] = molecular target: T1, ATP-sensitive potassium channels; assay: Radioligand (Example 1) binding assay, guinea-pig cardiac ventricle membranes; conditions: without ATP regenerating system
[4] = cardiac membranes, in the presence of the ATP regenerating system, Cheng-Prusoff, read-out: Ki value for displacement of specific Example 1 binding
[5] = quantity not given, Ki per method, mean±S.E.M., read-out: displacement of specific Example 1 binding by KATP channel blockers

T1 sequence (A0A286XYR9 1-1546): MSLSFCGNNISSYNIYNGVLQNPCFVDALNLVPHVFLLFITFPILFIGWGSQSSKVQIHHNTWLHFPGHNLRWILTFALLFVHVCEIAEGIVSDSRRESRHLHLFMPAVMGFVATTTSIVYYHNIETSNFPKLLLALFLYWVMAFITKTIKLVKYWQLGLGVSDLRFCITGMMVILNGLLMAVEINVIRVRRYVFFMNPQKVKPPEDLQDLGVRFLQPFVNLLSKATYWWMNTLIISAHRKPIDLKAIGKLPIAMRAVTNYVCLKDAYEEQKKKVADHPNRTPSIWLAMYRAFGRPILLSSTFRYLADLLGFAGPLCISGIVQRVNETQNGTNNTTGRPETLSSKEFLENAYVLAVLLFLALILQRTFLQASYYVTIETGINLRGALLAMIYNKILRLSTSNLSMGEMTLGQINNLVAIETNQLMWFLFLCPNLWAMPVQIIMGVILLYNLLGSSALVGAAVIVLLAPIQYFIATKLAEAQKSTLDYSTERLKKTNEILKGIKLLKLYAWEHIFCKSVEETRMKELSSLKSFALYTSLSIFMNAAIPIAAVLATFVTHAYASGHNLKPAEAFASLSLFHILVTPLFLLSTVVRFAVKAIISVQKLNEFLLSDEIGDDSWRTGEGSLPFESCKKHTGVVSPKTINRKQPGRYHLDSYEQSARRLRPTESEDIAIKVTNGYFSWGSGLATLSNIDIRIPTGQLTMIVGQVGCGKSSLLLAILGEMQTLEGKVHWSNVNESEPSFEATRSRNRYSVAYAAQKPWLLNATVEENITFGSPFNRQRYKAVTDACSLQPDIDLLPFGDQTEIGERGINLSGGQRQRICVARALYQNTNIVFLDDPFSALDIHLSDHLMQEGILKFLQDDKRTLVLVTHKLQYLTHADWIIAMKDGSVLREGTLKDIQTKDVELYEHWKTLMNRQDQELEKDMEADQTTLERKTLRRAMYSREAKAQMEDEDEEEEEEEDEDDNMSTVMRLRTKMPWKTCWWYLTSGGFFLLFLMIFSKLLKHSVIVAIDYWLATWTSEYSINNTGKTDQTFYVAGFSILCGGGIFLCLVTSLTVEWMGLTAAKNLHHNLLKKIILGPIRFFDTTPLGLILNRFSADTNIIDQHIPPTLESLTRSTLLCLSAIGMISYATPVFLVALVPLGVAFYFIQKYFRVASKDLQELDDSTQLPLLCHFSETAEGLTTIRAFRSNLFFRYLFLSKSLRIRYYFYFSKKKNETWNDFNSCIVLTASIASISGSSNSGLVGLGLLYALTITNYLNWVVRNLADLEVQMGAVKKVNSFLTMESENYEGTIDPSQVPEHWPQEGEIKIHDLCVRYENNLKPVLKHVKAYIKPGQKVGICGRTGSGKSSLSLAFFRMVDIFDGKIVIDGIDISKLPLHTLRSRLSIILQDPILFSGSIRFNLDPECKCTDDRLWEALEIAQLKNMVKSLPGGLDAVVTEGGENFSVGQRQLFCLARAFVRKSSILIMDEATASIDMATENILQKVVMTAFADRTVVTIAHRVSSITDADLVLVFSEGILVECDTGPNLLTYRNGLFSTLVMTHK

- effect on specific binding of Example 1 (in words) [1]: displaced
SMILES: O=C1CCCC2=C1[C@H](c1ccc(F)c(Br)c1)C1=C(CCS1(=O)=O)N2 [Example A-278637]

- effect on specific binding of Example 1 (in words) [1]: displaced
SMILES: CC1(C)Oc2ccc(C#N)cc2C(N2CCCC2=O)C1O (stereo not drawn) [cromakalim]

- Ki ([1]; cardiac membranes, rank order potency, read-out: Ki value for displacement of Example 1 binding): 44800 nM
SMILES: CC1=NS(=O)(=O)c2cc(Cl)ccc2N1 [diazoxide]

- Ki [1, 5]: 4500 ± 400 nM
SMILES: Cc1cnc(C(=O)NCCc2ccc(S(=O)(=O)NC(=O)NC3CCCCC3)cc2)cn1 [glipizide]

- Ki [1, 5]: 47.6 ± 9.4 nM
SMILES: COc1ccc(Cl)cc1C(=O)NCCc1ccc(S(=O)(=O)NC(=O)NC2CCCCC2)cc1 [glyburide]

More lines, now with the values behind:

SMILES: CCOc1ccccc1N/C(=C\[N+](=O)[O-])NC(C)C(C)(C)C (stereo not drawn) [Bay X 9228]
- effect on specific binding of Example 1 (in words) [1]: displaced

SMILES: O=C1COCC2=C1C(c1ccc(F)c(I)c1)C1=C(CCS1(=O)=O)N2 (stereo not drawn) [Example 1, 9-(4-fluoro-3-[I^125]iodophenyl)-2,3,5,9-tetrahydro-4H-pyrano[3,4-b]thieno[2,3-e]pyridin-8(7H)-one 1,1-dioxide]
- Ki [1, 4]: 5.8 nM
- Kd ([1]; guinea-pig cardiac ventricle membranes, single set of saturable sites, n=3, mean±S.E.M., read-out: KD value (equilibrium dissociation constant), saturation binding): 5.83 ± 0.77 nM
- Kd [2]: 5 nM

SMILES: O=C1COCC2=C1C(c1ccc(F)c([125I])c1)C1=C(CCS1(=O)=O)N2 (stereo not drawn) [Example 1, 9-(4-fluoro-3-[I^125]iodophenyl)-2,3,5,9-tetrahydro-4H-pyrano[3,4-b]thieno[2,3-e]pyridin-8(7H)-one 1,1-dioxide]
- maximum binding capacity (Bmax) ([1]; guinea-pig cardiac ventricle membranes, saturation binding, n=3): 107.7±12.7 femtomol/mg protein
- specific binding in the presence of just ATP alone [3]: no specific binding was detected

SMILES: CCC(C)(C)N=C(NC#N)Nc1cccnc1 [Example P1075]
- effect on specific binding of Example 1 (in words) [1]: displaced

SMILES: O=C1COCC2=C1C(c1ccc(F)c(I)c1)C1=C(CCS1(=O)=O)N2 (stereo not drawn) [Unlabeled Example 1, 9-(4-fluoro-3-iodophenyl)-2,3,5,9-tetrahydro-4H-pyrano[3,4-b]thieno[2,3-e]pyridin-8(7H)-one 1,1-dioxide]
- Ki [1, 4]: 5.8 nM

SMILES: COC(=O)C1=C(C)NC(C)=C(C(=O)OC(C)C)C1c1cccc2nonc12 (stereo not drawn) [isradipine]
- effect on specific binding of Example 1 (in words) [1]: unaffected

SMILES: CC(N/C(=N\C#N)Nc1ccncc1)C(C)(C)C (stereo not drawn) [pinacidil]
- effect on specific binding of Example 1 (in words) [1]: displaced
